Some test systems named below: HCT-116; HCT-15; IGROV-1; K562; M14; MCF7; MDA-MB-435; MDA-N; NCI-H226; NCI-H460; NCI-H522; OVCAR-3; OVCAR-5; RPMI-8226; SF-295; SK-MEL-28; SNB-75; UACC-257; UO-31.
Common to all, as to experiment: NCI tumour cell line growth inhibition, 48 h

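Where inhibition never reached the appropriate level, the endpoint shown equals the highest concentration tested. Otherwise, values were interpolated linearly from a five-concentration, 48-hour dose response in 96-well plates. Here, GI50 denotes the concentration required for 50% inhibition of growth.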 Active and inactive are the calls of the source. Cut-off read from the data, not from the text of the source: active = GI50 up to about 1.1 µM and inactive = higher.

Consider `CC(C)(C)c1cc(C(=O)/C=C/c2ccc(C(=O)O)cc2)cc(C(C)(C)C)c1`, for which the GI50 in the test with HCT-116 was 2.73 µM (inactive); in the test with HCT-15, 1.91 µM; in the test with IGROV-1 it was 3.8 µM (inactive); with K562, 3.21 µM (inactive); in the test on M14, 1.5 µM (inactive); with MCF7, 3.87 µM (inactive). Moreover, the GI50 in the test on MDA-MB-435 was 2.16 µM (inactive); with MDA-N, 2.32 µM (inactive); with NCI-H226, 1.53 µM (inactive); in the test with NCI-H460, 1.94 µM (inactive); with NCI-H522 it was 4.34 µM (inactive); in the test on OVCAR-3 it was 2.35 µM (inactive). The GI50 with OVCAR-5 was 4.9 µM (inactive); in the test on RPMI-8226, 1.16 µM (inactive); in the test on SF-295, 2.58 µM (inactive); with SK-MEL-28, 2.38 µM (inactive); in the test on SNB-75, 0.885 µM (active); in the test on UACC-257, 10.1 µM (inactive). The GI50 with UO-31 is 5.47 µM (inactive).

On to `Nc1c2c(=O)[nH]c(=O)c2c(N)c2c(=O)c3ccccc3c(=O)c12`, for which the GI50 is 4.6 µM (inactive) with HCT-116; 1.36 µM in the test with HCT-15; 1.65 µM (inactive) with IGROV-1; 3.02 µM (inactive) in the test on K562; 0.243 µM (active) with M14; 1.16 µM (inactive) in the test on MCF7. The GI50 in the test with MDA-MB-435 is 0.478 µM (active); in the test on MDA-N, 0.212 µM (active); in the test on NCI-H226, 1.85 µM (inactive); in the test with NCI-H460, 0.869 µM (active); in the test with NCI-H522 it was 3.35 µM (inactive); in the test with OVCAR-3, 0.684 µM (active). The GI50 was 1.82 µM (inactive) in the test with OVCAR-5; 2.05 µM (inactive) in the test with RPMI-8226; 1.59 µM (inactive) with SF-295; 2.03 µM (inactive) in the test with SK-MEL-28; 1.69 µM (inactive) in the test with UACC-257; 3.81 µM (inactive) with UO-31.

Regarding `COc1cc(OC)c2nc(C)c3c(c2c1)OCC3`, the GI50 is 80.7 µM (inactive) with HCT-116; greater than 100 µM in the test with HCT-15; > 100 µM (inactive) in the test on IGROV-1; > 100 µM (inactive) with K562; > 100 µM (inactive) in the test with M14; > 100 µM (inactive) in the test with MCF7. Also, the GI50 in the test with MDA-MB-435 is > 100 µM (inactive); with MDA-N, > 100 µM (inactive); in the test on NCI-H226, > 100 µM (inactive); in the test with NCI-H460, > 100 µM (inactive); in the test with NCI-H522, 72.9 µM (inactive); with OVCAR-3 it was > 100 µM (inactive). The GI50 in the test on OVCAR-5 is > 100 µM (inactive); in the test with RPMI-8226, > 100 µM (inactive); in the test on SF-295 it was 34 µM (inactive); with SK-MEL-28 it was > 100 µM (inactive); with SNB-75, 61.2 µM (inactive); with UACC-257, > 100 µM (inactive). For the same molecule, in the test on UO-31, the GI50 is > 100 µM (inactive).

Turning to `CC1(c2nc3ccccc3[nH]2)CCC(CO)C(C)(C)O1` (configuration not stated), the GI50 is > 100 µM (inactive) in the test on HCT-116; greater than 100 µM in the test with HCT-15; > 100 µM (inactive) with IGROV-1; > 100 µM (inactive) in the test with K562; > 100 µM (inactive) with M14; > 100 µM (inactive) in the test on MCF7. Further, the GI50 in the test with MDA-MB-435, in the test with MDA-N, with NCI-H226, with NCI-H522, in the test on OVCAR-3 and in the test with OVCAR-5 was > 100 µM (inactive) in each case. Further, the GI50 in the test with RPMI-8226 is > 100 µM (inactive); with SF-295, > 100 µM (inactive); with SK-MEL-28, > 100 µM (inactive); in the test with SNB-75, > 100 µM (inactive); in the test with UACC-257 it was > 100 µM (inactive); in the test with UO-31 it was 98.6 µM (inactive).

Regarding `CC(C)OP(=O)(OC(C)C)c1ccc2c(c1)OCCOCCOCCOCCO2`, the GI50 in the test with HCT-116 was > 100 µM (inactive); in the test with HCT-15, greater than 100 µM; with IGROV-1 it was > 100 µM (inactive); in the test on K562, > 100 µM (inactive); with M14, > 100 µM (inactive); in the test on MCF7 it was > 100 µM (inactive). Further, the GI50 in the test with MDA-MB-435, in the test on MDA-N, in the test on NCI-H226, in the test with NCI-H460, in the test with NCI-H522 and in the test on RPMI-8226 was > 100 µM (inactive) in each case. Besides, the GI50 with SF-295, in the test with SK-MEL-28, with SNB-75, in the test on UACC-257 and in the test with UO-31 was > 100 µM (inactive) each time.

With `COc1ccc(N2C(=O)c3c4c(c5c([nH]c6ncccc65)c3C2=O)CCC(C(C)(C)C)C4)cc1` (configuration not stated), the GI50 was > 100 µM (inactive) in the test with HCT-116; greater than 100 µM in the test on HCT-15; > 100 µM (inactive) in the test on IGROV-1; > 10 µM (inactive) with K562; > 100 µM (inactive) in the test with M14; > 100 µM (inactive) in the test on MCF7. For the same molecule, the GI50 in the test with MDA-MB-435 is > 100 µM (inactive); in the test with MDA-N it was > 100 µM (inactive); with NCI-H226, > 100 µM (inactive); with NCI-H460 it was > 100 µM (inactive); in the test with NCI-H522, 67.3 µM (inactive); in the test with OVCAR-3, > 100 µM (inactive). Moreover, the GI50 is > 100 µM (inactive) in the test with RPMI-8226; 45.6 µM (inactive) in the test with SF-295; > 100 µM (inactive) in the test on SK-MEL-28; 16.8 µM (inactive) in the test with SNB-75; > 100 µM (inactive) in the test with UACC-257; > 100 µM (inactive) in the test on UO-31.

As for `O=P(O)(O)CN1CCN(CP(=O)(O)O)CCN(CP(=O)(O)O)CCN(CP(=O)(O)O)CC1`, the GI50 was 36.4 µM (inactive) in the test with HCT-116; 27.8 µM in the test with HCT-15; > 100 µM (inactive) in the test with IGROV-1; 31.8 µM (inactive) in the test with K562; > 100 µM (inactive) in the test with M14; 53.6 µM (inactive) with MCF7. For the same molecule, the GI50 in the test on MDA-MB-435 is > 100 µM (inactive); with MDA-N, 79.4 µM (inactive); in the test on NCI-H226 it was > 100 µM (inactive); with NCI-H460, 29 µM (inactive); with NCI-H522, 90.4 µM (inactive); with OVCAR-3, > 100 µM (inactive). Besides, the GI50 with OVCAR-5 was 73.8 µM (inactive); in the test on RPMI-8226, 21.2 µM (inactive); with SF-295 it was > 100 µM (inactive); in the test on SNB-75 it was > 100 µM (inactive); in the test on UACC-257 it was > 100 µM (inactive); in the test with UO-31, > 100 µM (inactive).

For the molecule `COc1cc(C2c3cc(OC)c(OC)c(O)c3C(=O)C3CCC(=O)N32)cc(OC)c1OC` (configuration not stated), the GI50 was 93.1 µM (inactive) with HCT-116; greater than 100 µM in the test with HCT-15; > 100 µM (inactive) in the test on IGROV-1; 29.3 µM (inactive) in the test with K562; > 100 µM (inactive) in the test on M14; > 100 µM (inactive) with MCF7. For the same molecule, the GI50 was 16.2 µM (inactive) in the test on MDA-MB-435; 18.2 µM (inactive) in the test with MDA-N; 10.9 µM (inactive) with NCI-H226; > 100 µM (inactive) with NCI-H460; 26 µM (inactive) with NCI-H522; 34.1 µM (inactive) with OVCAR-3. In addition, the GI50 is > 100 µM (inactive) in the test with OVCAR-5; 28.8 µM (inactive) in the test with RPMI-8226; > 100 µM (inactive) in the test with SF-295; > 100 µM (inactive) with SK-MEL-28; 63.7 µM (inactive) in the test on SNB-75; > 100 µM (inactive) with UACC-257.

In the case of `CN1CCc2c(sc3nc(S)nc(S)c23)C1`, the GI50 with HCT-116 is > 100 µM (inactive); in the test on HCT-15 it was greater than 100 µM; in the test with IGROV-1, > 100 µM (inactive); with K562, > 100 µM (inactive); in the test with M14, > 100 µM (inactive); in the test with MCF7 it was > 100 µM (inactive). In addition, the GI50 in the test on MDA-MB-435, with MDA-N, with NCI-H226, in the test on NCI-H460, in the test on NCI-H522 and in the test on OVCAR-3 was > 100 µM (inactive) in each case. The GI50 in the test on OVCAR-5, in the test with RPMI-8226, in the test with SF-295, with SK-MEL-28, with SNB-75 and in the test on UACC-257 was > 100 µM (inactive) in each case.

Turning to `COc1ccc2[nH]cc(C=C3C(=O)NC(=S)NC3=O)c2c1`, the GI50 in the test on HCT-116 was > 100 µM (inactive); in the test with HCT-15, greater than 100 µM; with IGROV-1, > 100 µM (inactive); with K562, > 100 µM (inactive); in the test on M14, > 100 µM (inactive); in the test on MCF7, > 100 µM (inactive). Further, the GI50 with MDA-MB-435, in the test on MDA-N, in the test on NCI-H226, in the test on NCI-H460, in the test on NCI-H522 and in the test with OVCAR-3 was > 100 µM (inactive) throughout. Moreover, the GI50 with OVCAR-5 is > 100 µM (inactive); with SF-295 it was 94.8 µM (inactive); in the test with SK-MEL-28, > 100 µM (inactive); with SNB-75, 23.1 µM (inactive); in the test with UACC-257, > 100 µM (inactive); in the test with UO-31, > 100 µM (inactive).

With `CC(C(=O)COCc1ccccc1)P1(=O)OC(C)(C)CN1C(C)(C)C` (configuration not stated), the GI50 was > 100 µM (inactive) in the test with HCT-116; greater than 100 µM in the test with HCT-15; > 100 µM (inactive) in the test on M14; > 100 µM (inactive) with MCF7; > 100 µM (inactive) with MDA-MB-435; > 100 µM (inactive) in the test with MDA-N. The GI50 with NCI-H226 was > 100 µM (inactive); in the test with NCI-H460, > 100 µM (inactive); with NCI-H522 it was > 100 µM (inactive); with OVCAR-3, > 100 µM (inactive); with OVCAR-5 it was 49.4 µM (inactive); in the test with RPMI-8226, > 100 µM (inactive). For the same molecule, the GI50 in the test on SF-295 is > 100 µM (inactive); in the test with SNB-75, 54.7 µM (inactive); in the test with UACC-257, > 100 µM (inactive); in the test with UO-31, > 100 µM (inactive).

The record behind these values is ChEMBL document CHEMBL1201862, “PubChem BioAssay data set” (2004).
